Tests used:
windgrass [1] = test: Test Example 4: herbicidal effect by soil treatment (Table 19, symbol L); type: in vivo, windgrass (Apera spica-venti); conditions: amount of applied herbicide 320 g/ha
How it was run: (§1)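 Herbicidal effect was rated 3 weeks after treatment, using the scoring criteria of an earlier test. The compound, formulated as an emulsion and diluted in water to a set herbicide amount, had been sprayed uniformly on soil over freshly sown seeds. Growth took place in a greenhouse at 25° C. to 30° C.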

green foxtail [2] = test: Test Example 5: herbicidal effect by foliage application, plastic box (Table 20, symbol G); type: in vivo, green foxtail (Setaria viridis); conditions: foliage application, 320 g/ha, three weeks after application
How it was run: (§2)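 Foliar spray test: emulsion formulation diluted in water to a set application rate, sprayed onto 14-day-old plants raised in diluvial soil at 25° C to 30° C under glass. Both herbicidal effect and crop effect rated visually three weeks later.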

windgrass [3] = test: Test Example 5: herbicidal effect by foliage application, plastic box (Table 20, symbol L); type: in vivo, windgrass (Apera spica-venti); conditions: foliage application, 320 g/ha, three weeks after application
How it was run: as §2

wild oat = test: Test Example 5: herbicidal effect by foliage application, plastic box (Table 20, symbol I); type: in vivo, wild oat (Avena fatua); conditions: foliage application, 320 g/ha, three weeks after application
How it was run: as §2

false cleavers = test: Test Example 4: herbicidal effect by soil treatment (Table 19, symbol Q); type: in vivo, false cleavers (Galium spurium); conditions: amount of applied herbicide 320 g/ha
How it was run: as §1

oval-leafed pondweed = test: Test Example 2: herbicidal activity, application during weed generation under submerged conditions (Table 17, symbol C); type: in vivo, oval-leafed pondweed (Monochoria vaginalis); conditions: AAH 320 g/ha; application during weed generation, submerged conditions
How it was run: (§3)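 Wagner pot, alluvial soil, 4 cm flood; mixed sowing of all species; greenhouse 25° C.–30° C. Emulsifiable formulation, water-diluted to predetermined dose, applied to paddy water at 1–2 leaf stage. Effect rated at 3 wk using the earlier test's scoring criteria.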

velvetleaf [4] = test: Test Example 4: herbicidal effect by soil treatment (Table 19, symbol M); type: in vivo, velvetleaf (Abutilon theophrasti); conditions: amount of applied herbicide 320 g/ha
How it was run: as §1

velvetleaf [5] = test: Test Example 5: herbicidal effect by foliage application, plastic box (Table 20, symbol M); type: in vivo, velvetleaf (Abutilon theophrasti); conditions: foliage application, 320 g/ha, three weeks after application
How it was run: as §2

barnyard grass [6] = test: Test Example 5: herbicidal effect by foliage application, plastic box (Table 20, symbol H); type: in vivo, barnyard grass (Echinochloa crus-galli); conditions: foliage application, 320 g/ha, three weeks after application
How it was run: as §2

barnyard grass [7] = test: Test Example 3: herbicidal effect by foliage application, Wagner pot (Table 18, symbol H); type: in vivo, barnyard grass (Echinochloa crus-galli); conditions: amount of applied herbicide 320 g/ha
How it was run: (§4)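 Plants were sown in alluvial soil held under 0.1–0.5 cm standing water and grown 14 days in a greenhouse at 25–30 °C. An emulsifiable formulation, water-diluted to the set dose, was then sprayed onto the foliage, and effects were scored three weeks later using previously defined criteria.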

late watergrass [8] = test: Test Example 2: herbicidal activity, application during weed generation under submerged conditions (Table 17, symbol A); type: in vivo, late watergrass (Echinochloa oryzicola); conditions: AAH 320 g/ha; application during weed generation, submerged conditions
How it was run: as §3

late watergrass [9] = test: Test Example 1: herbicidal activity, application before weed generation under submerged conditions (Table 16, symbol A); type: in vivo, late watergrass (Echinochloa oryzicola); conditions: amount of applied herbicide 320 g/ha
How it was run: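 Submerged Wagner pots (alluvial soil, 4 cm water) sown with weed seeds and planted with 2.5-leaf rice seedlings; emulsifiable concentrate diluted in water applied to water surface on sowing day. Held in greenhouse at 25-30 °C; injury scored 0-5 by herbicidal rate after three weeks.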

lambsquarters = test: Test Example 5: herbicidal effect by foliage application, plastic box (Table 20, symbol O); type: in vivo, lambsquarters (Chenopodium album); conditions: foliage application, 320 g/ha, three weeks after application
How it was run: as §2

Chinese sprangletop = test: Test Example 3: herbicidal effect by foliage application, Wagner pot (Table 18, symbol D); type: in vivo, chinese sprangletop (Leptochloa chinensis); conditions: amount of applied herbicide 320 g/ha
How it was run: as §4

green foxtail [10] = test: Test Example 4: herbicidal effect by soil treatment (Table 19, symbol G); type: in vivo, green foxtail (Setaria viridis); conditions: amount of applied herbicide 320 g/ha
How it was run: as §1

redroot pigweed [11] = test: Test Example 4: herbicidal effect by soil treatment (Table 19, symbol N); type: in vivo, redroot pigweed (Amaranthus retroflexus); conditions: amount of applied herbicide 320 g/ha
How it was run: as §1

redroot pigweed [12] = test: Test Example 5: herbicidal effect by foliage application, plastic box (Table 20, symbol N); type: in vivo, redroot pigweed (Amaranthus retroflexus); conditions: foliage application, 320 g/ha, three weeks after application
How it was run: as §2

Structure (SMILES) | herbicidal effect rating, C: oval-leafed pondweed (oval-leafed pondweed) | herbicidal effect rating, A: late watergrass (late watergrass [8]) | Herbicidal effect, A: late watergrass (late watergrass [9]) | L: windgrass, herbicidal effect grade (windgrass [1]) | herbicidal effect on green foxtail (G) (green foxtail [2]) | herbicidal effect on windgrass (L) (windgrass [3]) | herbicidal effect on wild oat (I) (wild oat) | Q: false cleavers, herbicidal effect grade (false cleavers) | M: velvetleaf, herbicidal effect grade (velvetleaf [4]) | herbicidal effect on velvetleaf (M) (velvetleaf [5]) | herbicidal effect on barnyard grass (H) (barnyard grass [6]) | Herbicidal effect on H (barnyard grass), foliage application (barnyard grass [7]) | herbicidal effect on lambsquarters (O) (lambsquarters) | Herbicidal effect on D (Chinese sprangletop), foliage application (Chinese sprangletop) | G: green foxtail, herbicidal effect grade (green foxtail [10]) | N: redroot pigweed, herbicidal effect grade (redroot pigweed [11]) | also measured
CCCC(=O)Oc1c(C)nn(C)c(=O)c1-c1c(-c2ccccc2OC)sc2cc(F)ccc12 [3-004] | 4 (Herbicidal rate of 70% or more and less than 90%) | 4 (Herbicidal rate of 70% or more and less than 90%) | 5 (Herbicidal rate of 90% or more (almost completely withered)) |  |  |  |  |  |  |  |  |  |  |  |  |  | herbicidal effect, L: windgrass (windgrass [1]): 5 (Herbicidal rate of 90% or more (almost completely withered)); G: green foxtail, herbicidal effect grade (green foxtail [2]): 4 (Herbicidal rate of 70% or more and less than 90%); L: windgrass, herbicidal effect grade (windgrass [3]): 5 (Herbicidal rate of 90% or more (almost completely withered)); I: wild oat, herbicidal effect grade (wild oat): 4 (Herbicidal rate of 70% or more and less than 90%); herbicidal effect, Q: false cleavers (false cleavers): 5 (Herbicidal rate of 90% or more (almost completely withered)); herbicidal effect, M: velvetleaf (velvetleaf [4]): 4 (Herbicidal rate of 70% or more and less than 90%); M: velvetleaf, herbicidal effect grade (velvetleaf [5]): 5 (Herbicidal rate of 90% or more (almost completely withered)); H: barnyard grass, herbicidal effect grade (barnyard grass [6]): 5 (Herbicidal rate of 90% or more (almost completely withered)); herbicidal effect on H: barnyard grass (barnyard grass [7]): 5 (Herbicidal rate of 90% or more (almost completely withered)); O: lambsquarters, herbicidal effect grade (lambsquarters): 5 (Herbicidal rate of 90% or more (almost completely withered)); herbicidal effect on D: Chinese sprangletop (Chinese sprangletop): 4 (Herbicidal rate of 70% or more and less than 90%); herbicidal effect, G: green foxtail (green foxtail [10]): 4 (Herbicidal rate of 70% or more and less than 90%); herbicidal effect, N: redroot pigweed (redroot pigweed [11]): 5 (Herbicidal rate of 90% or more (almost completely withered)); N: redroot pigweed, herbicidal effect grade (redroot pigweed [12]): 5 (Herbicidal rate of 90% or more (almost completely withered))
CCOc1ccc(-c2oc3ccc(F)cc3c2-c2c(O)c(C)nn(C)c2=O)cc1 [9-021] | 4 (Herbicidal rate of 70% or more and less than 90%) | 4 (Herbicidal rate of 70% or more and less than 90%) | 5 (Herbicidal rate of 90% or more (almost completely withered)) | 3 (Herbicidal rate of 40% or more and less than 70%) | 4 (Herbicidal rate of 70% or more and less than 90%) | 0 (Herbicidal rate of 5% or less (almost no effect)) | 4 (Herbicidal rate of 70% or more and less than 90%) | 0 (Herbicidal rate of 5% or less (almost no effect)) | 3 (Herbicidal rate of 40% or more and less than 70%) | 5 (Herbicidal rate of 90% or more (almost completely withered)) | 3 (Herbicidal rate of 40% or more and less than 70%) | 3 (Herbicidal rate of 40% or more and less than 70%) | 3 (Herbicidal rate of 40% or more and less than 70%) | 3 (Herbicidal rate of 40% or more and less than 70%) | 4 (Herbicidal rate of 70% or more and less than 90%) | 5 (Herbicidal rate of 90% or more (almost completely withered)) | 
CCCOc1ccc(-c2oc3ccc(F)cc3c2-c2c(O)c(C)nn(C)c2=O)cc1 [9-023] | 5 (Herbicidal rate of 90% or more (almost completely withered)) | 5 (Herbicidal rate of 90% or more (almost completely withered)) | 5 (Herbicidal rate of 90% or more (almost completely withered)) | 3 (Herbicidal rate of 40% or more and less than 70%) | 5 (Herbicidal rate of 90% or more (almost completely withered)) | 4 (Herbicidal rate of 70% or more and less than 90%) | 3 (Herbicidal rate of 40% or more and less than 70%) | 0 (Herbicidal rate of 5% or less (almost no effect)) | 3 (Herbicidal rate of 40% or more and less than 70%) | 5 (Herbicidal rate of 90% or more (almost completely withered)) | 5 (Herbicidal rate of 90% or more (almost completely withered)) | 5 (Herbicidal rate of 90% or more (almost completely withered)) | 5 (Herbicidal rate of 90% or more (almost completely withered)) | 3 (Herbicidal rate of 40% or more and less than 70%) | 5 (Herbicidal rate of 90% or more (almost completely withered)) | 5 (Herbicidal rate of 90% or more (almost completely withered)) | 
CSc1ccc(-c2oc3ccc(F)cc3c2-c2c(O)c(C)nn(C)c2=O)cc1 [9-037] | 2 (Herbicidal rate of 20% or more and less than 40%) | 0 (Herbicidal rate of 5% or less (almost no effect)) | 3 (Herbicidal rate of 40% or more and less than 70%) | 0 (Herbicidal rate of 5% or less (almost no effect)) | 5 (Herbicidal rate of 90% or more (almost completely withered)) | 5 (Herbicidal rate of 90% or more (almost completely withered)) | 5 (Herbicidal rate of 90% or more (almost completely withered)) | 0 (Herbicidal rate of 5% or less (almost no effect)) | 3 (Herbicidal rate of 40% or more and less than 70%) | 5 (Herbicidal rate of 90% or more (almost completely withered)) | 4 (Herbicidal rate of 70% or more and less than 90%) | 5 (Herbicidal rate of 90% or more (almost completely withered)) | 5 (Herbicidal rate of 90% or more (almost completely withered)) | 2 (Herbicidal rate of 20% or more and less than 40%) | 1 (Herbicidal rate of 5% or more and less than 20%) | 5 (Herbicidal rate of 90% or more (almost completely withered)) | 

Source: patent US20230085307A1, “PYRIDAZINONE COMPOUND AND HERBICIDE” (NISSAN CHEMICAL CORPORATION, priority 2019, published 2023)
